Experiments:
Type in all cases: in vivo, rat
VEGF = VEGF content of MCAO rats (kit, 450 nm); settings: brain homogenate, model group 18.28 ± 1.62
Text: 1.1 Experimental animal and 1.2 Medicine to be tested: the same as effect example 6
1.3 Experimental reagents: PBS, VEGF kit
1.4 Experimental instruments: nylon fishing wire having a diameter of 0.25 mm, German; enzyme-labeling instrument (Finland, Thermo BioAnalysis Company's product, Multiskan MK3 model); surgical instruments, Surgical Instrument Factory of Shanghai Medical Apparatus And Instruments CO, LTD.
2.1 The preparation of re-perfusion model of middle cerebral artery occlusion of a rat: the same as effect example 6
2.2 The judgment on whether the model was successful and 2.3 Grouping and administration: the same as effect example 6
2.4 Taking Material and treatment: the same as effect example 6
As to VEGF, it is detected using enzyme-labeling instrument at 450 nm according to the kit.
The SAS 8.2 statistical software was used to carry out the one-way ANOVA variance analysis and the differences among the groups were compared by t-test.

MCAO rats [1] = assay: Beam walking test of MCAO rats; settings: 0-6 points; for beam walking Evaluation (3 d): model group 1.47 ± 0.84; for beam walking Evaluation (7 d): model group 1.92 ± 2.02
Text: 140 healthy SD male rats, weighing 280-300 g, provided by Beijing Vital River Laboratories, certificate No.: SCXK (Jing) 2002-2003. The method of [Koizumi J, Yoshida […]. Experimental studies of ischemia brain edema, I: A new experimental model of cerebral embolism in rats in which recirculation can be introduced in the ischemic area[J]. […] After the rats were anesthetized and the skin thereof was disinfected by ethanol. By cutting right in the middle of the neck, the right common carotid artery, internal carotid artery and external carotid artery were separated and the common carotid artery and external carotid artery were ligated. The internal carotid artery was clamped with a bulldog clamp. A cut was made at the crotch of the external carotid artery and the internal carotid artery followed by releasing the bulldog clamp. […] Next, the external carotid artery was ligated and the nylon wire was fixed. In sham operation group, the right common carotid artery, the external carotid artery and the internal carotid artery were only exposed and separated. The rats were routinely raised in different cages. 0.5 ml penicillin was continuously injected into every mouse for three days after the surgery. […] The rats getting 1-3 point were selected for the subsequent experiment. The MCAO rats having the same point were distributed randomly and averagely to each experimental group. […] Beam walking test was used to evaluate the motor coordination and the integration defect after the cerebral ischemia damage. […] There was a dark box attached to one end of the beam and the rats were stimulated by noise to walk through the beam into the dark box. […] The rats were trained before the ischemia for 5 days until all the rats can get 6 point. The third and the seventh days after administration was set as the observation time to carry out the test. The SPSS 11.0 software pack was used to carry out the statistical analysis of all the data. The comparison of the enumeration data was carried out with X^2 test P<0.05 had statistical meaning.

MCAO rats [2] = assay: Neurological symptoms of MCAO rats (Zea Longa 5 grades); settings: 0-4 points; for neurological symptoms evaluation (3 d): model group 1.74 ± 0.73; for neurological symptoms evaluation (7 d): model group 1.61 ± 0.96
Experimental: 140 healthy SD male rats, weighing 280-300 g, provided by Beijing Vital River Laboratories, certificate No.: SCXK (Jing) 2002-2003.
Tetramethylpyrazine (TMP), vanillic acid, LQC-T4 (self made), the purity ≧98%, determined using high performance liquid chromatography (HPLC), which met the requirement of experiment, the powder being carefully sealed and preserved at 4° C., and imodipine (ShanDong XinHua Pharmaceutical CO., Ltd, batch No.: 0908164).
The method of [Koizumi J, Yoshida Y, Nakazawa T, Ooneda G. Experimental studies of ischemia brain edema, I: A new experimental model of cerebral embolism in rats in which recirculation can be introduced in the ischemic area[J]. Jpn J Stroke, 1986, 8:1-8] was referred to in order to establish the MCAO model. After the rats were anesthetized and the skin thereof was disinfected by ethanol. By cutting right in the middle of the neck, the right common carotid artery, internal carotid artery and external carotid artery were separated and the common carotid artery and external carotid artery were ligated. The internal carotid artery was clamped with a bulldog clamp. A cut was made at the crotch of the external carotid artery and the internal carotid artery followed by releasing the bulldog clamp. The nylon wire was inserted into the cut with the deep of about a little longer than 18 mm to achieve the cerebral ischemia caused by cerebral artery occlusion. Next, the external carotid artery was ligated and the nylon wire was fixed. In sham operation group, the right common carotid artery, the external carotid artery and the internal carotid artery were only exposed and separated. The rats were routinely raised in different cages. 0.5 ml penicillin was continuously injected into every mouse for three days after the surgery.
The evaluating standard of the neurological symptoms of MCAO rats were carried out according to the Zea Longa 5 grades evaluating method, that is, the rats were evaluated when they were conscious after 6 h after the surgery: no apparent neurological symptom, 0 point; not being able to completely stretch the left front claw, 1 point; whirling leftward, 2 point; leaning leftward when walking, 3 point; having an epileptic seizure, losing consciousness and not being able to walk independently, as 4 point. The rats getting 1-3 point were selected for the subsequent experiment. The MCAO rats having the same point were distributed randomly and averagely to each experimental group.
There were sham operation group, model group, Nimodipine group, LQC-T 4 large dosage group, LQC-T4 small dosage group, TMP group and TMP+Vanillic acid group. 0.5% CMC-Na (1 ml·100 g^−1) was administrated intragastrically to the blank group and model group, two dosage groups of 120 mg·kg^−1 and 60 mg·kg^−1 were intragastrically administrated to the LQC-T4(1 ml·100 g^−1) group, and 74 mg·kg^−1 TMP+46 mg·kg^−1 vanillitc acid (1 ml·100 g^−1) were intragastrically administrated, once a day continuously for 10 days.
The SPSS 11.0 software pack was used to carry out the statistical analysis of all the data. The comparison of the enumeration data was carried out with X^2 test P<0.05 had statistical meaning.

[3] = 60 mg/kg intragastrically once a day
[4] = 120 mg/kg intragastrically once a day

COc1cc(C(=O)OCc2nc(C)c(C)nc2C)ccc1OCc1nc(C)c(C)nc1C [LQC-T4, (3,5,6-trimethylpyrazine-2-yl)methyl 3-methoxy-4-((3,5,6-trimethylpyrazine-2-yl)methoxy) benzoate]
VEGF (VEGF; 60 mg/kg intragastrically once per day for 10 days): 25.67 ± 9.69 | VEGF (VEGF; 120 mg/kg intragastrically once per day for 10 days): 22.86 ± 8.42 | beam walking Evaluation (3 d) (MCAO rats [1]; [3]): 3.6 ± 1.76 | beam walking Evaluation (7 d) (MCAO rats [1]; [3]): 3.83 ± 1.70 | beam walking Evaluation (3 d) (MCAO rats [1]; [4]): 2.88 ± 1.62 | beam walking Evaluation (7 d) (MCAO rats [1]; [4]): 3.20 ± 1.66 | neurological symptoms evaluation (3 d) (MCAO rats [2]; [3]): 1.40 ± 0.51 | neurological symptoms evaluation (7 d) (MCAO rats [2]; [3]): 1.26 ± 0.35 | neurological symptoms evaluation (3 d) (MCAO rats [2]; [4]): 1.29 ± 0.47 | neurological symptoms evaluation (7 d) (MCAO rats [2]; [4]): 1.60 ± 0.74

COCCOC(=O)C1=C(C)NC(C)=C(C(=O)OC(C)C)C1c1cccc([N+](=O)[O-])c1 (centres unmarked) [Nimodipine, reference compound]
VEGF (VEGF; 30 mg/kg once per day for 10 days): 19.66 ± 2.34 | beam walking Evaluation (3 d) (MCAO rats [1]; 30 mg/kg once a day): 2.71 ± 1.49 | beam walking Evaluation (7 d) (MCAO rats [1]; 30 mg/kg once a day): 3.50 ± 1.71 | neurological symptoms evaluation (3 d) (MCAO rats [2]; 30 mg/kg once a day): 1.35 ± 0.49 | neurological symptoms evaluation (7 d) (MCAO rats [2]; 30 mg/kg once a day): 1.11 ± 0.48

Cc1nc(C)c(C)nc1C [TMP, tetramethylpyrazine, reference compound]
VEGF (VEGF; 37 mg/kg once per day for 10 days): 23.62 ± 6.68 | beam walking Evaluation (3 d) (MCAO rats [1]; 37 mg/kg once a day): 2.86 ± 1.79 | beam walking Evaluation (7 d) (MCAO rats [1]; 37 mg/kg once a day): 2.40 ± 2.32 | neurological symptoms evaluation (3 d) (MCAO rats [2]; 37 mg/kg once a day): 1.36 ± 0.50 | neurological symptoms evaluation (7 d) (MCAO rats [2]; 37 mg/kg once a day): 1.67 ± 0.78

Reference: US8987449B2, “Medicine for treating ischemic brain injury and its sequelae, and preparation method thereof” (Haimin Lei, priority 2011, dated 2015)
